Several values for one entry are separate records, joined by “and”; a condition that tells them apart may be missing. Equal values may be shown once.
Experiments:
CD1 mice = assay: Tail-flick antinociception in CD1 mice; assay type: in vivo, mouse; settings: sc; for Tail flick (%MPE), average / Tail flick latency in secs, Av / Tail flick latency in secs, av: average of 8 animals; for Tail flick (%MPE) / Tail flick latency: individual animals
mMOR [1] = biological target: T1, mMOR (Mus musculus, UniProt P42866); assay: CAMYEL BRET cAMP agonist assay at mMOR; assay type: cell-based; settings: mMOR, single replicates, source data Fig 6b
T1 construct: signal peptide (heterologous, not specified) (N); expressed in transfected cells; pcDNA3.1(+) construct made in house

hMOR = biological target: T2, hMOR (Homo sapiens, UniProt P35372); assay: CAMYEL BRET cAMP agonist assay at hMOR; assay type: cell-based; settings: hMOR, single replicates, source data Fig 6c
T2 construct: expressed in transfected cells; plasmid a gift from Dr. Nevin Lambert

mMOR [2] = biological target: T1, mMOR; assay: BRET-based Nb33 recruitment assay at mMOR; assay type: cell-based; settings: single replicates, source data Fig 7a
[3] = Log[drug] (M) -13, cAMP inhibition as % of DAMGO

T1 sequence (P42866 whole entry): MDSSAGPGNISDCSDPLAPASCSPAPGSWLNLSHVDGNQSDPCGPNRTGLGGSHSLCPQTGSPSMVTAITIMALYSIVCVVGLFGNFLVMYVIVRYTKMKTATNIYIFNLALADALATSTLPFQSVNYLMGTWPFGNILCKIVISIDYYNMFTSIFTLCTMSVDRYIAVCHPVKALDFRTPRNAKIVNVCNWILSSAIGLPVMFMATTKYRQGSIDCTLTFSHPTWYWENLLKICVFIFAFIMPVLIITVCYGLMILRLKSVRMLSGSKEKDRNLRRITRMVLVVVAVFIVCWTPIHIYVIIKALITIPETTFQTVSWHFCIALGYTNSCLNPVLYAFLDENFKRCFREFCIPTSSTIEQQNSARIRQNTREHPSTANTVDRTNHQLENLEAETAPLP
T2 sequence (P35372 whole entry): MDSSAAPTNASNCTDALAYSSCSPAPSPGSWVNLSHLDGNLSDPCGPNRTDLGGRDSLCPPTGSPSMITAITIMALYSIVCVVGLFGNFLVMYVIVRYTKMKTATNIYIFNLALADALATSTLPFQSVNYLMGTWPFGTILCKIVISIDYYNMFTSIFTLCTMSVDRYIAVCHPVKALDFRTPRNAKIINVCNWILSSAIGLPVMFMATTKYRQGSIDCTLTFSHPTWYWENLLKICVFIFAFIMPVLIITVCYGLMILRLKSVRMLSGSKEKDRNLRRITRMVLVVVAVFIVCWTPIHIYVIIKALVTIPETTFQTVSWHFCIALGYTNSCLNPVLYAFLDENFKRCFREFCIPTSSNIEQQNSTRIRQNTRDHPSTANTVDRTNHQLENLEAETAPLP

**Q.** Which results are given for `CC[C@@H]1CN2CC[C@@]3(O)C(=Nc4cc(Cl)cc(OC)c43)[C@@H]2C[C@@H]1/C(=C\OC)C(=O)OC` [11-Cl-7OH]?
**A.** %MPE (CD1 mice; 5 mg/kg, 15 min): 2.8 %MPE; Tail flick (%MPE), average (CD1 mice; 5 mg/kg, 15 min): 2.3 %MPE; Tail flick latency in secs, Av (CD1 mice; 5 mg/kg, 15 min): 3.3 s; Tail flick (%MPE) (CD1 mice; 5 mg/kg, 15 min): -5.1 %MPE and -18.5 %MPE and 0.7 %MPE and 1.6 %MPE (2×) and 16.4 %MPE and 17.5 %MPE and 4.0 %MPE; Tail flick latency (CD1 mice; 5 mg/kg, 15 min): 2.75 secs and 2.65 secs and 2.95 secs and 3.7 secs (2×) and 4.4 secs and 3.4 secs and 2.8 secs; %MPE (CD1 mice; 5 mg/kg, 30 min): 1.6 %MPE; Tail flick (%MPE), average (CD1 mice; 5 mg/kg, 30 min): 1.3 %MPE; Tail flick latency in secs, Av (CD1 mice; 5 mg/kg, 30 min): 3.2 s; Tail flick (%MPE) (CD1 mice; 5 mg/kg, 30 min): -2.2 %MPE and -3.2 %MPE and 0.7 %MPE and -10.9 %MPE and 7.5 %MPE and 4.7 %MPE and 10.0 %MPE and 4.0 %MPE; Tail flick latency (CD1 mice; 5 mg/kg, 30 min): 2.95 secs (2×) and 3.6 secs and 2.9 secs and 3.8 secs and 3.9 secs and 2.8 secs (2×); %MPE (CD1 mice; 5 mg/kg, 60 min): 3.3 %MPE; Tail flick latency in secs, Av (CD1 mice; 5 mg/kg, 60 min): 3.3 s; Tail flick (%MPE) (CD1 mice; 5 mg/kg, 60 min): -2.9 %MPE and -16.1 %MPE and 7.0 %MPE and -1.6 %MPE and 1.5 %MPE and -10.9 %MPE and 21.3 %MPE and 20.0 %MPE; Tail flick latency (CD1 mice; 5 mg/kg, 60 min): 2.9 secs (2×) and 2.8 secs and 3.4 secs (2×) and 3.5 secs and 3.7 secs and 4 secs; %MPE (CD1 mice; 25 mg/kg, 15 min): 2.83 %MPE; Tail flick (%MPE), average (CD1 mice; 25 mg/kg, 15 min): 2.6 %MPE; Tail flick latency in secs, av (CD1 mice; 25 mg/kg, 15 min): 2.9 s; Tail flick (%MPE) (CD1 mice; 25 mg/kg, 15 min): 12.5 %MPE and -0.8 %MPE and 0.7 %MPE and -0.7 %MPE (2×) and 10.4 %MPE and -3.5 %MPE and 2.7 %MPE; Tail flick latency (CD1 mice; 25 mg/kg, 15 min): 3.0 secs (2×) and 3.5 secs and 2.8 secs and 2.6 secs (2×) and 3.1 secs and 2.9 secs; %MPE (CD1 mice; 25 mg/kg, 30 min): 5.91 %MPE; Tail flick (%MPE), average (CD1 mice; 25 mg/kg, 30 min): 5.5 %MPE; Tail flick latency in secs, av (CD1 mice; 25 mg/kg, 30 min): 3.1 s; Tail flick (%MPE) (CD1 mice; 25 mg/kg, 30 min): 12.5 %MPE and -11.5 %MPE and 9.0 %MPE and 3.6 %MPE and 10.1 %MPE and 10.4 %MPE and 3.5 %MPE and 6.8 %MPE; Tail flick latency (CD1 mice; 25 mg/kg, 30 min): 3.0 secs and 2.8 secs and 3.4 secs (2×) and 3.3 secs and 3.1 secs (2×) and 3.2 secs; %MPE (CD1 mice; 25 mg/kg, 60 min): 6.34 %MPE; Tail flick (%MPE), average (CD1 mice; 25 mg/kg, 60 min): 6.0 %MPE; Tail flick latency in secs, av (CD1 mice; 25 mg/kg, 60 min): 3.2 s; Tail flick (%MPE) (CD1 mice; 25 mg/kg, 60 min): 7.5 %MPE and -7.7 %MPE and 10.3 %MPE and 2.1 %MPE and 12.2 %MPE and 22.1 %MPE and 0.7 %MPE (2×); Tail flick latency (CD1 mice; 25 mg/kg, 60 min): 2.6 secs and 3.0 secs and 3.5 secs (2×) and 3.2 secs and 4.0 secs and 2.9 secs and 2.8 secs; %MPE (CD1 mice; 25 mg/kg, 150 min): 2.66 %MPE; Tail flick (%MPE), average (CD1 mice; 25 mg/kg, 150 min): -0.273 %MPE; Tail flick latency in secs, av (CD1 mice; 25 mg/kg, 150 min): 2.9 s; Tail flick (%MPE) (CD1 mice; 25 mg/kg, 150 min): -10.0 %MPE and 3.1 %MPE and 2.8 %MPE and -5.0 %MPE and 4.7 %MPE and 2.9 %MPE and -0.7 %MPE and 0.0 %MPE; Tail flick latency (CD1 mice; 25 mg/kg, 150 min): 2.3 secs and 3.7 secs and 3.0 secs and 2.6 secs and 2.9 secs (2×) and 3.3 secs and 2.5 secs

**Q.** `C[C@@H](NC(=O)[C@@H](N)Cc1ccc(O)cc1)C(=O)NCC(=O)N(C)[C@@H](Cc1ccccc1)C(=O)NCCO` [DAMGO, [D-Ala^2, N-Me-Phe^4, Gly^5-ol]-enkephalin, reference compound] was tested. Which cAMP % (mMOR [1]; Log[drug] (M) -5) did it give?
**A.** The cAMP % was 102.015% and 97.5784% and 104.579% and 96.6295% and 98.3687% and 104.58% and 107.049% and 113.123% and 108.981%.

**Q.** And the cAMP % (mMOR [1]; Log[drug] (M) -6)?
**A.** Its cAMP % is 105.759% and 89.6935% and 102.343% and 97.3213% and 106.448% and 102.195% and 98.7916% and 100.678% and 92.5396%.

**Q.** And the cAMP % (mMOR [1]; Log[drug] (M) -7)?
**A.** Its cAMP % is 94.7459% and 89.7557% and 84.4404% and 103.092% and 95.8909% and 105.68% and 91.1195% and 91.3937% and 91.5037%.

**Q.** What about the cAMP % (mMOR [1]; Log[drug] (M) -8) of the same compound?
**A.** The cAMP % was 54.4279% and 44.3207% and 58.3553% and 86.2498% and 84.9633% and 88.7212% and 82.7217% and 81.9867% and 95.6687%.

**Q.** What about the cAMP % (mMOR [1]; Log[drug] (M) -9) of the same compound?
**A.** The cAMP % was 14.6461% and 18.37% and 18.8483% and 47.9% and 59.4105% and 56.9807% and 36.8388% and 43.8092% and 46.1925%.

**Q.** What about the cAMP % (mMOR [1]; Log[drug] (M) -10) of the same compound?
**A.** The cAMP % was 1.728% and 0.08907% and -1.817% and 16.1543% and 6.811% and 19.2753% and 3.3167% and 1.639% and 10.5208%.

**Q.** What about the cAMP % (mMOR [1]; Log[drug] (M) -11) of the same compound?
**A.** The cAMP % was 6.094% and 2.441% and 8.528% and 5.436% and 3.7044% and 1.349% and 1.812% and -1.084% and -0.7282%.

**Q.** And the cAMP % (mMOR [1]; [3])?
**A.** The cAMP % was -0.3434% and 15.5805% and 1.417% and -1.196% and 0.717% and 0.4788% and 1.6944% and 5.324% and 4.584%.

**Q.** What about the cAMP % (hMOR; Log[drug] (M) -5) of the same compound?
**A.** Its cAMP % is 103.124% and 109.477% and 102.684% and 110.427% and 108.861% and 108.591% and 112.306% and 111.09%.

**Q.** What about the cAMP % (hMOR; Log[drug] (M) -6) of the same compound?
**A.** The cAMP % was 98.2575% and 92.1607% and 109.669% and 106.978% and 96.9047% and 104.556% and 112.319% and 93.9893% and 98.3933%.

**Q.** What about the cAMP % (hMOR; Log[drug] (M) -7) of the same compound?
**A.** The cAMP % was 84.826% and 103.003% and 98.5438% and 92.203% and 94.9009% and 88.7302% and 91.8158% and 88.9226% and 95.649%.

**Q.** What about the cAMP % (hMOR; Log[drug] (M) -8) of the same compound?
**A.** Its cAMP % is 90.1183% and 95.617% and 94.9621% and 80.7074% and 80.5991% and 79.7704% and 101.871%.

**Q.** What about the cAMP % (hMOR; Log[drug] (M) -9) of the same compound?
**A.** Its cAMP % is 83.2929% and 84.9251% and 85.9398% and 87.1639% and 70.6227% and 86.8862% and 70.8595%.

**Q.** What about the cAMP % (hMOR; Log[drug] (M) -10) of the same compound?
**A.** The cAMP % was 23.9872% and 31.9271% and 31.1042% and 26.2749% and 20.3118% and 16.9632% and 5.794% and 13.2278% and 15.6275%.

**Q.** What about the cAMP % (hMOR; Log[drug] (M) -11) of the same compound?
**A.** Its cAMP % is 7.017% and -4.712% and 3.0598% and 13.9517% and -4.528% and 3.447% and 8.388% and -3.773% and -4.615%.

**Q.** What about the cAMP % (hMOR; [3]) of the same compound?
**A.** Its cAMP % is 1.163% and -6.717% and 5.554% and 6.145% and -10.7075% and 4.5627% and 2.101% and 2.953% and 0.8452%.

**Q.** What about the “Nb33 BRET assay at mMOR, response” value (mMOR [2]; Log[drug] (M) -4) of the same compound?
**A.** Its value is 116.548 and 99.0991 and 123.097 and 102.778 and 111.876 and 86.5818 and 91.4453 and 105.421 and 94.7199 and 96.8839 and 110.228 and 105.758 and 96.6672 and 105.453 and 97.0797 and 106.37 and 115.431 and 97.3489 and 102.87 and 112.822 and 97.3627.

**Q.** And the “Nb33 BRET assay at mMOR, response” value (mMOR [2]; Log[drug] (M) -5)?
**A.** Its value is 78.3004 and 105.49 and 93.3001 and 92.3549 and 96.5229 and 94.3135 and 107.346 and 108.338 and 93.8039 and 95.4962 and 95.2898 and 96.1807 and 98.423 and 95.5858 and 88.3338 and 114.596 and 90.0997 and 91.8485 and 91.211 and 101.524 and 97.9528.

**Q.** And the “Nb33 BRET assay at mMOR, response” value (mMOR [2]; Log[drug] (M) -8)?
**A.** The value was 25.6157 and -0.9817 and 2.276 and 16.2956 and 7.2069 and 3.257 and 8.405 and 5.376 and 16.5535 and 18.8366 and 6.195 and 12.7572 and 5.664 and 5.763 and 13.2066 and 17.6481.

**Q.** And the “Nb33 BRET assay at mMOR, response” value (mMOR [2]; Log[drug] (M) -9)?
**A.** Its value is 2.545 and 18.2179 and 1.398 and 13.71 and 1.7362 and 12.589 and -5.813 and 7.089 and -10.8919 and 4.229 and 0.1289 and 0.7333 and 3.575 and -0.9155 and 34.3413 and 6.961 and -1.352 and 3.399 and 3.853 and 3.842 and 2.552.

**Q.** What about the “Nb33 BRET assay at mMOR, response” value (mMOR [2]; Log[drug] (M) -10) of the same compound?
**A.** Its value is 3.45 and -1.0779 and -15.1434 and 16.2214 and 5.631 and -0.462 and -5.169 and -3.138 and 4.714 and -1.576 and 1.587 and 11.4832 and -0.3739 and -1.213 and -14.9335 and -0.4874 and 0.03891 and 0.4485 and -4.142 and 2.431 and 1.7112.

**Q.** Which results are given for `CN1CC[C@]23c4c5ccc(O)c4O[C@H]2[C@@H](O)C=C[C@H]3[C@H]1C5` [Morphine, morphine, reference compound]?
**A.** Tail flick (%MPE) (CD1 mice; Fig 9b, Morphine 10 mg/kg): 32.79 %MPE and 42.86 %MPE and 100.00 %MPE (6×) and 61.73 %MPE and 52.00 %MPE; Tail flick latency (CD1 mice; Fig 9b, Morphine 10 mg/kg): 5.9 and 6 and 10 (6×) and 6.9 and 6.4

From paper PMC8219695 (Nature Communications, 2021)
